Source: US7816408B2, “Calcium receptor active compounds” (NPS Pharmaceuticals, Inc., priority 2002, dated 2010)

Key:
normal male SD rats = experiment: Plasma Ca^2+ level of rats after single oral administration; assay type: in vivo; conditions: rat, mean of six animals; for Plasma Ca^2+ (mmol/l) 0 hr: 0 hr = before oral administration of 30 μmol/kg; for Plasma Ca^2+ (mmol/l) 0 hr / Plasma Ca^2+ (mmol/l) 1 hr / Plasma Ca^2+ (mmol/l) 2 hr / Plasma Ca^2+ (mmol/l) 4 hr / Plasma Ca^2+ (mmol/l) 8 hr / Plasma Ca^2+ (mmol/l) 24 hr / Plasma Ca^2+ (mmol/l) 27 hr (footnote *b, 24 hr): vehicle 10% cyclodextrin (** 1% sodium-CMC); for Plasma Ca^2+ (mmol/l) 1 hr: 1 hr after single oral dose 30 μmol/kg; for Plasma Ca^2+ (mmol/l) 2 hr: 2 hr after single oral dose 30 μmol/kg; for Plasma Ca^2+ (mmol/l) 4 hr: 4 hr after single oral dose 30 μmol/kg; for Plasma Ca^2+ (mmol/l) 8 hr: 8 hr after single oral dose 30 μmol/kg; for Plasma Ca^2+ (mmol/l) 24 hr: 24 hr after single oral dose 30 μmol/kg; for Plasma Ca^2+ (mmol/l) 27 hr (footnote *b, 24 hr): 27 hr after single oral dose 30 μmol/kg; for Plasma Ca^2+ (mmol/l) 48 hr: 48 hr after single oral dose 30 μmol/kg, vehicle 10% cyclodextrin
Procedure, shortened: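 Normal male SD rats (n=6/group) received a single oral dose of 30 μmol/kg in 10% cyclodextrin or, for some compounds, 1% sodium-CMC; vehicle controls received 2.5 ml/kg. Tail blood was drawn pre-dose and at 30 min and 1, 2, 4, 8 and 24 h for plasma Ca^2+ and serum PTH. PTH was compared with vehicle by Steel's test.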

human calcium receptor = biological target: T1, human calcium receptor (Homo sapiens, UniProt P41180); experiment: Activity on calcium receptors: fluo-3 fluorescence in HEK293 cells transfected with human calcium receptor gene; assay type: cell-based; conditions: HEK293 cells transfected with plasmid pHuPCaR4.0 (human calcium receptor gene), loaded with fluo-3; 1 mM CaCl2, 1 mM MgCl2
T1 construct: expressed in transfected cells; host or cells: HEK293
T1 sequence (P41180 20-1078): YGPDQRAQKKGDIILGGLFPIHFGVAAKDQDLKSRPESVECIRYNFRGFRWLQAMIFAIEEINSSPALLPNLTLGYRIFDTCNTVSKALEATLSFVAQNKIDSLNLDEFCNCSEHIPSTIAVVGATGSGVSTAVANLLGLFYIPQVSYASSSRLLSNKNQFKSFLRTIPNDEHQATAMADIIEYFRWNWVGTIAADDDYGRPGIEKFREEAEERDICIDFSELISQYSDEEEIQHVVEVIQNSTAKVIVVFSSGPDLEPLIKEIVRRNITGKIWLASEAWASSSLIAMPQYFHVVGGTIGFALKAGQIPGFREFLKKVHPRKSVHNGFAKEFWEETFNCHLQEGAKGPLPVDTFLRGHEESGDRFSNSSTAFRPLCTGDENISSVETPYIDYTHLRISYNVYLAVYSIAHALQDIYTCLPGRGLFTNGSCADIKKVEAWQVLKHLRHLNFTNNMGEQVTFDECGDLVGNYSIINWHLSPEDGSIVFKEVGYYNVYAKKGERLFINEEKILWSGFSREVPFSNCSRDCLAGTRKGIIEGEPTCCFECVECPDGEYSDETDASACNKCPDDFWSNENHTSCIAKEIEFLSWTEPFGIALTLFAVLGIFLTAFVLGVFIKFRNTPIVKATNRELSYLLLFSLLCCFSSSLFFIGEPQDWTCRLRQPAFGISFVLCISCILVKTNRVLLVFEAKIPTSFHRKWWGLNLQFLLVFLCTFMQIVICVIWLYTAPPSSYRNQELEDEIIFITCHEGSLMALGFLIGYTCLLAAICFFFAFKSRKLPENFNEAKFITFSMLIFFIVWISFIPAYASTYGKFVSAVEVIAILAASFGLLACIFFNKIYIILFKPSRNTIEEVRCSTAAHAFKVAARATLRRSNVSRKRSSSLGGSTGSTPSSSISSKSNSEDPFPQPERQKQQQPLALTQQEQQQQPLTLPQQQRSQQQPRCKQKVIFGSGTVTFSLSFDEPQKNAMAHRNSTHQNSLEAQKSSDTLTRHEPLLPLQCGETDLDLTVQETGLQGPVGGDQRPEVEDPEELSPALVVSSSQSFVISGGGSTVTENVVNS
Procedure, shortened: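 HEK293 cells transfected with human calcium receptor plasmid, loaded 1 h at 37 °C with about 5 μM fluo-3/AM. Cells then rinsed into HEPES-buffered HBSS with 1 mM CaCl2 and 1 mM MgCl2. Fluorescence read at 485/540 nm after compound addition.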

Structure (SMILES) | EC50 (human calcium receptor) [nM] | Plasma Ca^2+ (mmol/l) 0 hr (normal male SD rats) [mmol/L] | Plasma Ca^2+ (mmol/l) 1 hr (normal male SD rats) [mmol/L] | Plasma Ca^2+ (mmol/l) 2 hr (normal male SD rats) [mmol/L] | Plasma Ca^2+ (mmol/l) 4 hr (normal male SD rats) [mmol/L] | Plasma Ca^2+ (mmol/l) 8 hr (normal male SD rats) [mmol/L] | Plasma Ca^2+ (mmol/l) 24 hr (normal male SD rats) [mmol/L] | Plasma Ca^2+ (mmol/l) 27 hr (footnote *b, 24 hr) (normal male SD rats) | Plasma Ca^2+ (mmol/l) 48 hr (normal male SD rats) [mmol/L]
C[C@@H](NCCCCCCSc1ccc(Cl)cc1)c1cccc2ccccc12 [Compound K-2286, N-{6-[(4-chlorophenyl)thio]hexyl}-N-[(1R)-1-(1-naphthyl)ethyl]amine] | 620 |  | 1.318 | 1.218 | 1.088 | 1.098 | 1.390 |  | 1.412
C[C@@H](NCCCCSc1ccc(OC(F)(F)F)cc1)c1cccc2ccccc12 [Compound K-2287, N-[(1R)-1-(1-naphthyl)ethyl]-N-(4-{[4-(trifluoromethoxy)phenyl)thio]butyl)amine] | 62 |  | 1.180 | 1.042 | 0.955 | 0.950 | 1.200 |  | 1.392
C[C@@H](NCCCCCSc1ccc(OC(F)(F)F)cc1)c1cccc2ccccc12 [Compound K-2288, N-[(1R)-1-(1-naphthyl)ethyl]-N-(5-{[4-(trifluoromethoxy)phenyl)thio]pentyl)amine] | 140 |  | 1.190 | 1.057 | 0.955 | 0.905 | 1.162 |  | 1.387
COc1ccc(CN(Cc2ccc(Cl)cc2)C(=O)CCN[C@H](C)c2cccc3ccccc23)cc1 [Compound K-2289, N1-(4-chlorobenzyl)-N1-(4-methoxybenzyl)-3-{[(1R)-1-(1-naphthyl)ethyl]amino}propanamide] | 74 |  | 1.270 | 1.173 | 1.003 | 1.093 |  |  | 
C[C@@H](NCCC(=O)N(Cc1ccc(Cl)cc1)Cc1ccc2ccccc2c1)c1cccc2ccccc12 [Compound K-2291, N1-(4-chlorobenzyl)-N1-(2-naphthylmethyl)-3-{[(1R)-1-(1-naphthyl)ethyl]amino}propanamide] | 81 |  | 1.298 | 1.247 | 1.130 | 1.132 |  |  | 
C[C@@H](NCCCCCCCSc1c(F)c(F)c(C(F)(F)F)c(F)c1F)c1cccc2ccccc12 [Compound K-2292, N-[(1R)-1-(1-naphthyl)ethyl]-N-(7-{[2,3,5,6-tetrafluoro-4-(trifluoromethyl)phenyl]thio}heptyl)amine] | 74 |  | 1.375 | 1.252 | 1.152 | 1.108 |  |  | 
C[C@@H](NCCCCSc1ccc(Cl)cc1)c1cccc2ccccc12 [Compound K-2293, N-{4-[(4-chlorophenyl)thio]butyl}-N-[(1R)-1-(1-naphthyl)ethyl]amine] | 280 |  | 1.245 | 1.152 | 1.068 | 1.088 |  |  | 

More lines, main results first:

EC50 (human calcium receptor) [nM] | Structure (SMILES) | Plasma Ca^2+ (mmol/l) 0 hr (normal male SD rats) [mmol/L] | Plasma Ca^2+ (mmol/l) 1 hr (normal male SD rats) [mmol/L] | Plasma Ca^2+ (mmol/l) 2 hr (normal male SD rats) [mmol/L] | Plasma Ca^2+ (mmol/l) 4 hr (normal male SD rats) [mmol/L] | Plasma Ca^2+ (mmol/l) 8 hr (normal male SD rats) [mmol/L] | Plasma Ca^2+ (mmol/l) 24 hr (normal male SD rats) [mmol/L] | Plasma Ca^2+ (mmol/l) 27 hr (footnote *b, 24 hr) (normal male SD rats) | Plasma Ca^2+ (mmol/l) 48 hr (normal male SD rats) [mmol/L]
140 | CCOc1ccc2sc(SCCCCN[C@H](C)c3cccc4ccccc34)nc2c1 [Compound K-2271] | 1.428 | 1.278 | 1.227 | 1.128 | 1.197 |  |  | 
52 | C[C@@H](NCCC(=O)N(Cc1ccc(OC(F)(F)F)cc1)Cc1ccc(Cl)c(Cl)c1)c1cccc2ccccc12 [Compound K-2272, N1-(3,4-dichlorobenzyl)-N1-[4-(trifluoromethoxy)benzyl)-3-{[(1R)-1-(1-naphthyl)ethyl]-amino}propanamide] |  | 1.382 | 1.237 | 1.075 | 1.022 | 1.240 |  | 
630 | COc1cccc(SCCCCCN[C@H](C)c2cccc3ccccc23)c1 [Compound K-2279, N-{[5-(3-methoxyphenyl)thio]pentyl}N-[(1R)-1-(1-naphthyl)ethyl]amine] | 1.443 | 1.200 | 1.155 | 1.130 | 1.210 | 1.445 |  | 
270 | COc1ccc(SCCCCCN[C@H](C)c2cccc3ccccc23)cc1 [Compound K-2280] | 1.443 | 1.233 | 1.167 | 1.077 | 1.142 | 1.405 |  | 
430 | C[C@@H](NCCCCSc1cc(Cl)c(Cl)cc1Cl)c1cccc2ccccc12 [Compound K-2281, N-[(1R)-1-(1-naphthyl)ethyl]-N-{4-[(2,4,5-trichlorophenyl)thio]butyl}amine] |  | 1.380 | 1.245 | 1.103 | 0.993 |  | 1.230*^b mmol/l | 
340 | C[C@@H](NCCCCCSc1cc(Cl)c(Cl)cc1Cl)c1cccc2ccccc12 [Compound K-2282, N-[(1R)-1-(1-naphthyl)ethyl]-N-{5-[(2,4,5-trichlorophenyl)thio]pentyl}amine] |  | 1.425 | 1.298 | 1.168 | 1.078 |  | 1.230*^b mmol/l | 
93 | C[C@@H](NCCC(=O)N(Cc1ccc(Cl)cc1)Cc1ccc(OC(F)(F)F)cc1)c1cccc2ccccc12 [Compound K-2283, N1-(4-chlorobenzyl)-N1-[4-(trifluoromethoxy)benzyl)-3-{[(1R)-1-(1-naphthyl)ethyl]-amino}propanamide] |  | 1.395 | 1.305 | 1.210 | 1.253 |  |  | 
360 | C[C@@H](NCCCCCSc1c(F)c(F)c(C(F)(F)F)c(F)c1F)c1cccc2ccccc12 [Compound K-2284, N-[(1R)-1-(1-naphthyl)ethyl]-N-(5-{[2,3,5,6-tetrafluoro-4-(trifluoromethyl)phenyl]thio}pentyl) amine] |  | 1.377 | 1.267 | 1.152 | 1.102 |  |  | 
100 | COc1ccc(CN(Cc2ccc(C(F)(F)F)cc2)C(=O)CCN[C@H](C)c2cccc3ccccc23)cc1 [Compound K-2290, N1-(4-methoxybenzyl)-N1-[4-(trifluoromethyl)benzyl)-3-{[(1R)-1-(1-naphthyl)ethyl]amino}propanamide] |  | 1.428 | 1.248 | 1.063 | 1.055 |  |  | 
